Where two headings read alike, the source gives them in different places.
Key:
[1] = molecular target: T1, α2C (h) (Homo sapiens, UniProt P18825); type: binding; details: 1 h
T1 construct: host or cells: CHO cells
T1 sequence (P18825 1-462): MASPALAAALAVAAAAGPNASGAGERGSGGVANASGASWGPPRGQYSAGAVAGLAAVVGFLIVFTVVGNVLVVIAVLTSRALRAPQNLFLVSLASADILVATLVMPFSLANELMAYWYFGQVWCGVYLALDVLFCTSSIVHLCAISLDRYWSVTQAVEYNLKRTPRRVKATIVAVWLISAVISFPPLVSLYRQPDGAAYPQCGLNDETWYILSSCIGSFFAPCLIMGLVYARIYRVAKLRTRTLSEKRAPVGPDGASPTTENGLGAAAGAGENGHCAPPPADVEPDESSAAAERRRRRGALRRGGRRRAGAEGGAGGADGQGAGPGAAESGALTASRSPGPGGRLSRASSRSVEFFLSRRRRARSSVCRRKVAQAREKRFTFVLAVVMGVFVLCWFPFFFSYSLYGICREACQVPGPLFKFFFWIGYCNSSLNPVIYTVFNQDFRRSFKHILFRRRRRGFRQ

[2] = molecular target: T2, Kv7.1 (Homo sapiens, UniProt P51787); assay: Ion channel selectivity patch clamp; type: cell-based; details: Voltage (+20 mV)
T2 construct: expressed in transfected cells

[3] = C57BL/6, mouse, in vivo
[4] = system: Ca2+ channel (L, verapamil site) (phenylalkylamine); type: binding, rat; details: 1.0E-06 M
[5] = molecular target: T3, hTRPC1/hTRPC5 (Homo sapiens, UniProt Q9UL62); assay: Whole-cell manual patch clamp; type: cell-based
T3 construct: The cDNAs for various full-length ion channels were subcloned into pcDNA5/TO; expressed in transfected cells; host or cells: heterologous co-expression

[6] = molecular target: T4, MC4 (h) (Homo sapiens, UniProt P32245); type: binding; details: 1.0E-06 M
T4 construct: host or cells: CHO cells

[7] = molecular target: T5, choline transporter (CHT1) (h) (Homo sapiens, UniProt Q9GZV3); type: binding; details: 1.0E-06 M
T5 construct: host or cells: CHO cells
T5 sequence (Q9GZV3 1-580): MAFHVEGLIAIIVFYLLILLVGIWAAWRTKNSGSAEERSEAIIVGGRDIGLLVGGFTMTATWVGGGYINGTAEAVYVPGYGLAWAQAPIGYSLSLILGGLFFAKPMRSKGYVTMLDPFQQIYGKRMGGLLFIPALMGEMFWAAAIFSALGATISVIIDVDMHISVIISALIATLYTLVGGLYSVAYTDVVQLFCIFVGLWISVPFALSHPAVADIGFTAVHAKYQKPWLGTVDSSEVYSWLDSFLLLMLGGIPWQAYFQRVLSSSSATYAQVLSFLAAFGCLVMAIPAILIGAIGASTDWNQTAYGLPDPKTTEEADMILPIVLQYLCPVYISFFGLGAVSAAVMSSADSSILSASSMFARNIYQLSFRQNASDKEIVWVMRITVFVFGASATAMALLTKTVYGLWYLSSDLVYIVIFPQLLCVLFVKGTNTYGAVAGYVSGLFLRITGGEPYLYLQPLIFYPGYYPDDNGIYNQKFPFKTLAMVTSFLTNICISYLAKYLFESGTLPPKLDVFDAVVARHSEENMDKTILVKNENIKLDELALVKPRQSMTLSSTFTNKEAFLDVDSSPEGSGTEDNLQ

[8] = molecular target: T6, ETA (h) (Homo sapiens, UniProt P25101); type: binding; details: 1.0E-06 M
T6 construct: host or cells: CHO cells
T6 sequence (P25101 21-427): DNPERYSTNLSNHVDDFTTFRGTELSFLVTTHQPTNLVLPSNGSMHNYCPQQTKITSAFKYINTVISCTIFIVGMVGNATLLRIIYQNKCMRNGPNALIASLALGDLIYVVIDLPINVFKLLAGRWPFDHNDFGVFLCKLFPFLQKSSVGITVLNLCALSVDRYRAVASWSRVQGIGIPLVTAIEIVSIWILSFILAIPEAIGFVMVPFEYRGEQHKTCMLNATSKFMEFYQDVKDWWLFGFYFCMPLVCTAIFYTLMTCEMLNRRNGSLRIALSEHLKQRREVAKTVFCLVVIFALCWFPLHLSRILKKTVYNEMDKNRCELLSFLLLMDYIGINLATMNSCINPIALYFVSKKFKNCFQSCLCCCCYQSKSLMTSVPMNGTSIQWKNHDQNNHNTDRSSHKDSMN

[9] = molecular target: D2S (h) (Homo sapiens, UniProt P14416); assay: biochemical
[10] = molecular target: glycine (strychnine-insensitive) (Rattus norvegicus, UniProt P35439); type: binding
[11] = molecular target: T7, Kv1.3 (Homo sapiens, UniProt P22001); assay: Ion channel selectivity patch clamp; type: cell-based; details: Voltage (+20 mV)
T7 construct: expressed in transfected cells

[12] = system: α1 (non-selective); type: binding, rat; details: 1.0E-06 M
[13] = molecular target: M3 (h) (Homo sapiens, UniProt P20309); assay: biochemical
[14] = system: kainate; type: binding, rat; details: 1.0E-06 M
[15] = system: AMPA; type: binding, rat; details: 1.0E-06 M
[16] = molecular target: hERG (Homo sapiens, UniProt Q12809); assay: Ion channel selectivity patch clamp
hERG, sequence (Q12809 whole entry): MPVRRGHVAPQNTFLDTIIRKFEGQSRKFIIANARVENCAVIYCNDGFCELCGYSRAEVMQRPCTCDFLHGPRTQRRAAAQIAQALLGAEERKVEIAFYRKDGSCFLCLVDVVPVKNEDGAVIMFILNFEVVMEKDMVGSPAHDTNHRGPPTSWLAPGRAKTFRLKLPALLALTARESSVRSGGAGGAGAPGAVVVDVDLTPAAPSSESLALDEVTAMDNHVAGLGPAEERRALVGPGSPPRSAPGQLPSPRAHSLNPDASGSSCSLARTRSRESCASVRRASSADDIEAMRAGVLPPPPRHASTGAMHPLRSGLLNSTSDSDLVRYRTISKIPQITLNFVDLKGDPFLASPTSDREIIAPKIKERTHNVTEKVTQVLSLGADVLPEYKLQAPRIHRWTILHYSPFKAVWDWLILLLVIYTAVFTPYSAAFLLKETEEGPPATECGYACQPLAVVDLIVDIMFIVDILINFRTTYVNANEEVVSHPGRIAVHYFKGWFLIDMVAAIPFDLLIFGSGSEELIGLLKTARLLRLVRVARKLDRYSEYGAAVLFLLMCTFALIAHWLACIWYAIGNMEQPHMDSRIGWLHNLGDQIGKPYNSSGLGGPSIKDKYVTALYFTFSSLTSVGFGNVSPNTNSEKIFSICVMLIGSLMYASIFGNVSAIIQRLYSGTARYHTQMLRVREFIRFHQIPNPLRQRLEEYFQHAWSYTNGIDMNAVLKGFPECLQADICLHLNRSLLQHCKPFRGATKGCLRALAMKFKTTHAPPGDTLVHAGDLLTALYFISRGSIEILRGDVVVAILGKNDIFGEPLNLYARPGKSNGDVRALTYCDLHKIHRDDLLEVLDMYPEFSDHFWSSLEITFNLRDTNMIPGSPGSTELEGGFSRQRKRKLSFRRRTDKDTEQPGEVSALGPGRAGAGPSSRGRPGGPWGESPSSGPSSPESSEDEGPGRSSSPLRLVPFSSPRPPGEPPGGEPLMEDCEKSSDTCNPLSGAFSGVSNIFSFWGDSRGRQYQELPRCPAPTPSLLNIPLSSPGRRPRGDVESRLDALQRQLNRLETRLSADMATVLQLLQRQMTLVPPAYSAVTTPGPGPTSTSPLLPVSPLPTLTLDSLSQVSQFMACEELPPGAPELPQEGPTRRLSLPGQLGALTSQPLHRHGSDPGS

M3 (h), sequence (P20309 whole entry): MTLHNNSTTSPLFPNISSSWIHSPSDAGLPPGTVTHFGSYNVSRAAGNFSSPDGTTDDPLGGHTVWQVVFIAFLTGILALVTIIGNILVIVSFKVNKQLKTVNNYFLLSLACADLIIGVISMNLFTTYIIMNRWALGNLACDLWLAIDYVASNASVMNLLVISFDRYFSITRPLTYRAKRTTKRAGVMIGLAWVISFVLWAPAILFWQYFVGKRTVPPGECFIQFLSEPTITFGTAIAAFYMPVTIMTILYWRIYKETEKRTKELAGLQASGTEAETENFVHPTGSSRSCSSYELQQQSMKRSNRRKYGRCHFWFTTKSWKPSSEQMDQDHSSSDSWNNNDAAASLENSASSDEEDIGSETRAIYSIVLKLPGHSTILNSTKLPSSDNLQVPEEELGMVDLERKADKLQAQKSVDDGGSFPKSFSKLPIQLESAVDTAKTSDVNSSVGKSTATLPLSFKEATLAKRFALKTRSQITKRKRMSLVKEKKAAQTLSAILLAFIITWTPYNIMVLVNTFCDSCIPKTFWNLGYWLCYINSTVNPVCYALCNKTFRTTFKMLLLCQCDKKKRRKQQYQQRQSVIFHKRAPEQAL
D2S (h), sequence (P14416 1-414 isoform P14416-2): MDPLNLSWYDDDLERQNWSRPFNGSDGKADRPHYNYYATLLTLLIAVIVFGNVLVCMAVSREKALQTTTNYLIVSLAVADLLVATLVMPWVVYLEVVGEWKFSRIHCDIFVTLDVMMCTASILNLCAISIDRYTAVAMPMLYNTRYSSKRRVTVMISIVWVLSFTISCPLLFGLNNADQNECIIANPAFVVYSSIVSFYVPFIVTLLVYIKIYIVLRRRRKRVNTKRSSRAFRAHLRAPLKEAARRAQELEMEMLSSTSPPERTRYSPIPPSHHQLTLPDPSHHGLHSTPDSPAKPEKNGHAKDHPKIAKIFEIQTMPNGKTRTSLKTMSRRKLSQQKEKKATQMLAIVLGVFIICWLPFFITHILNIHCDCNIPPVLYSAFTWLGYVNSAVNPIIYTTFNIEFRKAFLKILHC
T4 sequence (P32245 whole entry): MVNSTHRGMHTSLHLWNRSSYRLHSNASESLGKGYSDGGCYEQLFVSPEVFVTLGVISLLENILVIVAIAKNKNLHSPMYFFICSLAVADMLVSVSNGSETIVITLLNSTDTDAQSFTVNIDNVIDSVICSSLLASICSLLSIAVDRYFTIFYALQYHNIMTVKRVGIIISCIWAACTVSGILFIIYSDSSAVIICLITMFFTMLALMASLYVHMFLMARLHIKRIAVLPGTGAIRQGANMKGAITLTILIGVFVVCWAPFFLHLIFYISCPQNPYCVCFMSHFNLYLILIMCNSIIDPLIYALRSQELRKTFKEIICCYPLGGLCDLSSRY
T3 sequence (Q9UL62 whole entry): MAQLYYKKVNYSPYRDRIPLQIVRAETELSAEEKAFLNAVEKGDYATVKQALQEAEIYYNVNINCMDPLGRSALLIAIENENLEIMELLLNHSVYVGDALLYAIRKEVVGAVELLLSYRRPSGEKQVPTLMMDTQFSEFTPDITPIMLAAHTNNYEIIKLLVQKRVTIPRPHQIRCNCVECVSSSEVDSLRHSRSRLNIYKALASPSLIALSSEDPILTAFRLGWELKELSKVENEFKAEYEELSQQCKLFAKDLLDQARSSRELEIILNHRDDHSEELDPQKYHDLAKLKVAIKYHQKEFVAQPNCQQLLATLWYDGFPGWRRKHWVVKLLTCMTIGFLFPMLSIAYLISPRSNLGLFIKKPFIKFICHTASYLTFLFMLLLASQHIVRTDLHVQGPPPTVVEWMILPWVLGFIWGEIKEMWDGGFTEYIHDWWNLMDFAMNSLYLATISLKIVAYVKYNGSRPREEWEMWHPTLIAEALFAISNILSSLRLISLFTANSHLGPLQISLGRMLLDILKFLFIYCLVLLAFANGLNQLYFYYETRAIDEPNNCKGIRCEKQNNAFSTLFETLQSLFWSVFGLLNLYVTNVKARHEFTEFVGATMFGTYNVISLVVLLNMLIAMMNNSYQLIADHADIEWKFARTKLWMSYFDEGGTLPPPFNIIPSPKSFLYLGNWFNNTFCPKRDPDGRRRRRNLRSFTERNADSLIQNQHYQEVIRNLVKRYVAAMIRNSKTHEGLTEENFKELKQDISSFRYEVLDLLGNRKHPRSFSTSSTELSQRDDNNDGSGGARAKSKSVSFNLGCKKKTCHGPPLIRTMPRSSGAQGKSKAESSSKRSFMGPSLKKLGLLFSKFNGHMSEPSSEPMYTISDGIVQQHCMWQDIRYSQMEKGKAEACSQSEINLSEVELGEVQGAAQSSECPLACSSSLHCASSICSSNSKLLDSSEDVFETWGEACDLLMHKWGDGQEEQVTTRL
T3 sequence (P48995 whole entry partner): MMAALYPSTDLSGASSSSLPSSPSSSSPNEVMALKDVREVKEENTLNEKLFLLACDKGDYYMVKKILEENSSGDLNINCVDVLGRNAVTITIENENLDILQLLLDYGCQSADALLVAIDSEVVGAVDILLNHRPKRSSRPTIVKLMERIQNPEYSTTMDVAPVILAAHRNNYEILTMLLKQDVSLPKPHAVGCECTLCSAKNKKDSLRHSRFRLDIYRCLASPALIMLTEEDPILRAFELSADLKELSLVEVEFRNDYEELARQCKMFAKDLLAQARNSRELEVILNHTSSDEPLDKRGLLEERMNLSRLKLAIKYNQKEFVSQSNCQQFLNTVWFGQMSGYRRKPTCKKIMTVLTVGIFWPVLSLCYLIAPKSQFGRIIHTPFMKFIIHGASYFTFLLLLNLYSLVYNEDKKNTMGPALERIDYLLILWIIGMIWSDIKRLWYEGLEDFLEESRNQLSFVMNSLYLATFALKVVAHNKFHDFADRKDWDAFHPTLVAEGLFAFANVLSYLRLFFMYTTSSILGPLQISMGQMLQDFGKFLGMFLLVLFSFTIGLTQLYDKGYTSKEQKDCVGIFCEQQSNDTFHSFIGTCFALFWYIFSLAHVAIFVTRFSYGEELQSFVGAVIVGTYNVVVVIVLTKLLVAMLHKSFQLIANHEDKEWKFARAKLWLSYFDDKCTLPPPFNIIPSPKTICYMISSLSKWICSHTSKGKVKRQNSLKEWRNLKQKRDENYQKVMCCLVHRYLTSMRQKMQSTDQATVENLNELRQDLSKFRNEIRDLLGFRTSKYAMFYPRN
T7 sequence (P22001 whole entry): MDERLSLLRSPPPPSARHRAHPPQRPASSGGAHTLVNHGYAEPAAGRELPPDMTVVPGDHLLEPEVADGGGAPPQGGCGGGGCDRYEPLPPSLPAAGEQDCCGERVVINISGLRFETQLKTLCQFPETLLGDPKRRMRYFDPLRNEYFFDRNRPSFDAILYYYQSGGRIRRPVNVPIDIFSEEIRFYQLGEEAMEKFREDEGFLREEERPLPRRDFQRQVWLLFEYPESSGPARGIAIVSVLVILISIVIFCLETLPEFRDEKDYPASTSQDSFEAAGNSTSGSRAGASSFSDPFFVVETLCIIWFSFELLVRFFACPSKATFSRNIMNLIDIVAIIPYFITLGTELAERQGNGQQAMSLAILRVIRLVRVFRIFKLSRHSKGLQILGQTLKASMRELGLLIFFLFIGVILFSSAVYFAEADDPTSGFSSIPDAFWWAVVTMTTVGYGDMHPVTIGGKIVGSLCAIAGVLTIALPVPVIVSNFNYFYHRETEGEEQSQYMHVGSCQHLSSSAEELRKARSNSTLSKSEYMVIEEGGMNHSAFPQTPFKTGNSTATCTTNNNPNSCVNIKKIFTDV

## Cn1c(=O)n(CCCO)c(=O)c2c1nc(Oc1cccc(Cl)c1)n2Cc1ccc(Cl)cc1 [HC-070]
[1]; read-out: % Inhibition 1st
  inhibition at 1 µM: 7.9%
[1]; read-out: % Inhibition 2nd
  inhibition at 1 µM: -1%
[1]; read-out: % Inhibition Mean
  inhibition at 1 µM: 3.5%
[2]
  IC50: > 1900 nM
[3]; iv, 1 mg/kg, 2 h
  concentration in brain: 299 ± 11 nmol/kg
[3]; po, 10 mg/kg, 2 h
  concentration in brain tissue: 525 ± 72 nmol/kg
  unbound brain concentration: 1.5 nmol/kg
[3]; male, iv, 1 mg/kg
  MRTdisp: 1.9 h
[3]; male, po, 10 mg/kg
  MRTtot: 4.5 h

## Cn1c(=O)n(CCCO)c(=O)c2c1nc(Oc1cccc(OC(F)(F)F)c1)n2Cc1ccc(Cl)cc1 [HC-608]
[4]
  % Inhibition 1st: 2.3%
  % Inhibition 2nd: 14.5%
  % Inhibition Mean: 8.4%
[5]; 20 μM carbachol/M1R
  IC50: ~4.7 nM
[5]; La3+ (80 μM)
  IC50: ~1.4 nM
[6]; read-out: % Inhibition 1st
  inhibition at 1 µM: 2.9%
[6]; read-out: % Inhibition 2nd
  inhibition at 1 µM: -4.8%
[6]; read-out: % Inhibition Mean
  inhibition at 1 µM: -1%
[7]; read-out: % Inhibition 1st
  inhibition at 1 µM: -5.8%
[7]; read-out: % Inhibition 2nd
  inhibition at 1 µM: -1.9%
[7]; read-out: % Inhibition Mean
  inhibition at 1 µM: -3.9%
[8]; read-out: % Inhibition 1st
  inhibition at 1 µM: -33.9%
[8]; read-out: % Inhibition 2nd
  inhibition at 1 µM: 6.7%
[8]; read-out: % Inhibition Mean
  inhibition at 1 µM: -13.6%
[9]; read-out: % Inhibition 1st
  inhibition at 1 µM: 19.2%
[9]; read-out: % Inhibition 2nd
  inhibition at 1 µM: 9.4%
[9]; read-out: % Inhibition Mean
  inhibition at 1 µM: 14.3%
[10]; read-out: % Inhibition 1st
  inhibition at 1 µM: 1.7%
[10]; read-out: % Inhibition 2nd
  inhibition at 1 µM: 3.1%
[10]; read-out: % Inhibition Mean
  inhibition at 1 µM: 2.4%
[11]
  IC50: 1050 ± 340 nM
[12]
  % Inhibition 1st: -2.8%
  % Inhibition 2nd: 1.1%
  % Inhibition Mean: -0.8%
[13]; read-out: % Inhibition 1st
  inhibition at 1 µM: -9%
[13]; read-out: % Inhibition 2nd
  inhibition at 1 µM: -7.5%
[13]; read-out: % Inhibition Mean
  inhibition at 1 µM: -8.2%
[14]
  % Inhibition 1st: 5.9%
  % Inhibition 2nd: 5.3%
  % Inhibition Mean: 5.6%
[15]
  % Inhibition 1st: -2.1%
  % Inhibition 2nd: -9.2%
  % Inhibition Mean: -5.6%
[16]
  IC50: 1150 ± 130 nM
